target: T1, human SARM1(50-724) (Homo sapiens, UniProt Q6SZW1); assay: SARM1 NADase biochemical assay (HPLC of NAD and NAM); details: 40 nM human SARM1(50-724), 0.3 mM NMN, 20 μM NAD, 60 minutes room temperature; dose-response from 100 μM, 1:3 dilution
T1 construct: 40 nM human SARM1(50-724)
T1 sequence (Q6SZW1 50-724): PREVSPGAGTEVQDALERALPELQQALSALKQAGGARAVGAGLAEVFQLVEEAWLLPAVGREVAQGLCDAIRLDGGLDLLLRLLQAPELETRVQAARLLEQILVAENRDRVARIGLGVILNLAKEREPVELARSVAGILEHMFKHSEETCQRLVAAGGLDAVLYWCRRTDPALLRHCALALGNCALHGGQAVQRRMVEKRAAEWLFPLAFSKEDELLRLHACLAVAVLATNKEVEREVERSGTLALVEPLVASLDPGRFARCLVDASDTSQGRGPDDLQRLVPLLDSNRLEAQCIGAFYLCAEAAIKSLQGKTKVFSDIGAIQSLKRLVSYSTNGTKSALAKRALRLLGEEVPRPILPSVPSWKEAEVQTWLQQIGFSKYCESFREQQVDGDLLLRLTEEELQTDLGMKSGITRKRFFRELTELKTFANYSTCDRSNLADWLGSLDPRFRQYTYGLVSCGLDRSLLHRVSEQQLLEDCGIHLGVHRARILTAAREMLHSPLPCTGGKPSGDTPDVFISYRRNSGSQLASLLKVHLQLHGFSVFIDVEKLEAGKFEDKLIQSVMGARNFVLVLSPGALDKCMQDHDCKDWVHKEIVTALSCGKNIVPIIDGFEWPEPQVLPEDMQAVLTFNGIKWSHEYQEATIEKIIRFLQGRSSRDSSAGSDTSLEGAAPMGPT
Experimental: Each reaction was run at a volume of 20 μL containing 50 μM compound (dissolved in DMSO; final concentration of DMSO is 1% v/v), 40 nM human SARM1(50-724), 0.3 mM NMN, 20 μM NAD, 1 mM TCEP, 25 mM HEPES pH 7.4, 10 mM KCl and 10 mM MgCl2. The reaction was incubated at room temperature for 60 minutes and quenched with 20 μL of 0.4% formic acid. The samples were run on Agilent HPLC 1260 Infinity II with Synergi 2.5 μM Fusion-RP 100 Å (100×3.0 mm) LC column from Phenomenex. Total run time for each sample was 4 minutes. The run was isocratic with 1.5% methanol in 40 mM ammonium acetate pH 6.0. Samples were run at a flow rate of 0.8 mL/min at 55° C. Peak areas of NAD and NAM were determined using OpenLAB CDS (Chem Station edition) software. For dose-response, the compound was diluted serially 1:3 in DMSO and added to the reaction starting at a final compound concentration of 100 μM in 1% DMSO.

Row | SMILES | IC50
1 | Cc1c(-c2ccncc2)n[nH]c1N(C(=O)CCc1ccc(Cl)cc1)C(=O)CCC1CCCC1 [Example 8, 3-(4-Chlorophenyl)-N-(3-cyclopentylpropanoyl)-N-(4-methyl-3-(pyridin-4-yl)-1H-pyrazol-5-yl)propanamide] | < 1000 nM
2 | Cc1c(-c2ccncc2)n[nH]c1N(C(=O)CCc1cc(F)c(Cl)c(F)c1)C(=O)CCc1cc(F)c(Cl)c(F)c1 [Example 9, 3-(4-Chloro-3,5-difluorophenyl)-N-(3-(4-chloro-3,5-difluorophenyl)propanoyl)-N-(4-methyl-3-(pyridin-4-yl)-1H-pyrazol-5-yl)propanamide] | < 1000 nM
3 | Cc1c(-c2ccncc2)n[nH]c1N(C(=O)CCc1cc(F)c(F)c(F)c1)C(=O)CCc1cc(F)c(F)c(F)c1 [Example 10, N-(4-Methyl-3-(pyridin-4-yl)-1H-pyrazol-5-yl)-3-(3,4,5-trifluorophenyl)-N-(3-(3,4,5-trifluorophenyl)propanoyl)propanamide] | < 1000 nM
4 | Cc1c(-c2ccncc2)n[nH]c1N(C(=O)CCc1ccc(Cl)cc1)S(C)(=O)=O [Example 11, 3-(4-Chlorophenyl)-N-(4-methyl-3-(pyridin-4-yl)-1H-pyrazol-5-yl)-N-(methylsulfonyl)propanamide] | < 1000 nM
5 | Cc1c(-c2ccncc2)n[nH]c1N(C(=O)CCc1ccc(Cl)cc1)C(=O)C(C)C [Example 12, 3-(4-Chlorophenyl)-N-isobutyryl-N-(4-methyl-3-(pyridin-4-yl)-1H-pyrazol-5-yl)propanamide] | 1000 to 10000 nM
6 | CCc1c(-c2ccncc2)n[nH]c1NC(=O)CCc1cc(F)c(Cl)c(F)c1 [Example 13, 3-(4-Chloro-3,5-difluorophenyl)-N-(4-ethyl-3-(pyridin-4-yl)-1H-pyrazol-5-yl)propanamide] | < 1000 nM
7 | CCc1c(-c2ccncc2)n[nH]c1NC(=O)CCc1ccc(Cl)cc1 [Example 14, 3-(4-Chlorophenyl)-N-(4-ethyl-3-(pyridin-4-yl)-1H-pyrazol-5-yl)propanamide] | < 1000 nM
8 | CCc1c(-c2ccncc2)n[nH]c1NC(=O)CCc1cc(F)c(C#N)c(F)c1 [Example 15, 3-(4-Cyano-3,5-difluorophenyl)-N-(4-ethyl-3-(pyridin-4-yl)-1H-pyrazol-5-yl)propanamide] | < 1000 nM
9 | CCc1c(-c2ccncc2)n[nH]c1NC(=O)CCc1ccc(C#N)c(F)c1 [Example 16, 3-(4-Cyano-3-fluorophenyl)-N-(4-ethyl-3-(pyridin-4-yl)-1H-pyrazol-5-yl)propanamide] | < 1000 nM
10 | CCc1c(-c2ccncc2)n[nH]c1NC(=O)CCc1ccc(Cl)s1 [Example 17] | < 1000 nM
11 | Cc1c(-c2ccncc2)n[nH]c1NC(=O)CCc1ccc(Cl)cc1 [Example 19, 3-(4-Chlorophenyl)-N-(4-methyl-3-(pyridin-4-yl)-1H-pyrazol-5-yl)propanamide] | < 1000 nM
12 | Cc1c(-c2ccncc2)n[nH]c1NC(=O)CCc1ccc2c(c1)OCO2 [Example 20, 3-(Benzo[d][1,3]dioxol-5-yl)-N-(4-methyl-3-(pyridin-4-yl)-1H-pyrazol-5-yl)propanamide] | < 1000 nM
13 | Cc1c(-c2ccncc2)n[nH]c1NC(=O)CCc1cc(Cl)cc(Cl)c1 [Example 21, 3-(3,5-Dichlorophenyl)-N-(4-methyl-3-(pyridin-4-yl)-1H-pyrazol-5-yl)propanamide] | 1000 to 10000 nM
14 | Cc1c(-c2ccncc2)n[nH]c1NC(=O)CCc1ccccc1 [Example 22, N-(4-Methyl-3-(pyridin-4-yl)-1H-pyrazol-5-yl)-3-phenylpropanamide] | 1000 to 10000 nM
15 | Cc1c(-c2ccncc2)n[nH]c1NC(=O)CCc1ccccc1Cl [Example 23, 3-(2-Chlorophenyl)-N-(4-methyl-3-(pyridin-4-yl)-1H-pyrazol-5-yl)propanamide] | 1000 to 10000 nM
16 | Cc1ccc(CCC(=O)Nc2[nH]nc(-c3ccncc3)c2C)cc1 [Example 24, N-(4-Methyl-3-(pyridin-4-yl)-1H-pyrazol-5-yl)-3-(p-tolyl)propanamide] | < 1000 nM
17 | Cc1cccc(CCC(=O)Nc2[nH]nc(-c3ccncc3)c2C)c1 [Example 25, N-(4-Methyl-3-(pyridin-4-yl)-1H-pyrazol-5-yl)-3-(m-tolyl)propanamide] | 1000 to 10000 nM
18 | Cc1ccccc1CCC(=O)Nc1[nH]nc(-c2ccncc2)c1C [Example 26, N-(4-Methyl-3-(pyridin-4-yl)-1H-pyrazol-5-yl)-3-(o-tolyl)propanamide] | 1000 to 10000 nM

Row | SMILES | IC50
19 | COc1ccc(CCC(=O)Nc2[nH]nc(-c3ccncc3)c2C)cc1 [Example 27, 3-(4-Methoxyphenyl)-N-(4-methyl-3-(pyridin-4-yl)-1H-pyrazol-5-yl)propanamide] | 1000 to 10000 nM
20 | Cc1c(-c2ccncc2)n[nH]c1NC(=O)CCc1ccc2ccccc2c1 [Example 28, N-(4-Methyl-3-(pyridin-4-yl)-1H-pyrazol-5-yl)-3-(naphthalen-2-yl)propanamide] | 1000 to 10000 nM
21 | Cc1c(-c2ccncc2)n[nH]c1NC(=O)CCc1cccc2ccccc12 [Example 29, N-(4-Methyl-3-(pyridin-4-yl)-1H-pyrazol-5-yl)-3-(naphthalen-1-yl)propanamide] | 1000 to 10000 nM
22 | Cc1c(-c2ccncc2)n[nH]c1NC(=O)CCc1cccc(Cl)c1 [Example 30, 3-(3-Chlorophenyl)-N-(4-methyl-3-(pyridin-4-yl)-1H-pyrazol-5-yl)propanamide] | < 1000 nM
23 | Cc1c(-c2ccncc2)n[nH]c1NC(=O)CCc1ccc(Cl)c(Cl)c1 [Example 31, 3-(3,4-Dichlorophenyl)-N-(4-methyl-3-(pyridin-4-yl)-1H-pyrazol-5-yl)propanamide] | < 1000 nM
24 | Cc1c(-c2ccncc2)n[nH]c1NC(=O)CCc1ccc(C(F)(F)F)cc1 [Example 32, N-(4-Methyl-3-(pyridin-4-yl)-1H-pyrazol-5-yl)-3-(4-(trifluoromethyl)phenyl)propanamide] | < 1000 nM
25 | Cc1c(-c2ccncc2)n[nH]c1NC(=O)CCc1ccc(F)cc1 [Example 33, 3-(4-Fluorophenyl)-N-(4-methyl-3-(pyridin-4-yl)-1H-pyrazol-5-yl)propanamide] | < 1000 nM
26 | CCc1ccc(CCC(=O)Nc2[nH]nc(-c3ccncc3)c2C)cc1 [Example 34, 3-(4-Ethylphenyl)-N-(4-methyl-3-(pyridin-4-yl)-1H-pyrazol-5-yl)propanamide] | 1000 to 10000 nM
27 | Cc1c(-c2ccncc2)n[nH]c1NC(=O)CCc1ccc(Br)cc1 [Example 35, 3-(4-Bromophenyl)-N-(4-methyl-3-(pyridin-4-yl)-1H-pyrazol-5-yl)propanamide] | < 1000 nM
28 | Cc1c(-c2ccncc2)n[nH]c1NC(=O)CCc1ccc(C#N)cc1 [Example 36, 3-(4-Cyanophenyl)-N-(4-methyl-3-(pyridin-4-yl)-1H-pyrazol-5-yl)propanamide] | < 1000 nM
29 | Cc1c(-c2ccncc2)n[nH]c1NC(=O)CCc1ccc([N+](=O)[O-])cc1 [Example 37, N-(4-Methyl-3-(pyridin-4-yl)-1H-pyrazol-5-yl)-3-(4-nitrophenyl)propanamide] | < 1000 nM
30 | Cc1c(-c2ccncc2)n[nH]c1NC(=O)CCc1ccc(Cl)nc1 [Example 38, 3-(6-Chloropyridin-3-yl)-N-(4-methyl-3-(pyridin-4-yl)-1H-pyrazol-5-yl)propanamide] | < 1000 nM
31 | Cc1c(-c2ccncc2)n[nH]c1NC(=O)CCc1ccc(Cl)cn1 [Example 39, 3-(5-Chloropyridin-2-yl)-N-(4-methyl-3-(pyridin-4-yl)-1H-pyrazol-5-yl)propanamide] | 1000 to 10000 nM
32 | Cc1c(-c2ccncc2)n[nH]c1NC(=O)CCc1cc(F)c(Cl)cc1F [Example 40, 3-(4-Chloro-2,5-difluorophenyl)-N-(4-methyl-3-(pyridin-4-yl)-1H-pyrazol-5-yl)propanamide] | < 1000 nM
33 | Cc1c(-c2ccncc2)n[nH]c1NC(=O)CCc1ccc(Cl)cc1F [Example 41, 3-(4-Chloro-2-fluorophenyl)-N-(4-methyl-3-(pyridin-4-yl)-1H-pyrazol-5-yl)propanamide] | < 1000 nM
34 | Cc1cc(Cl)ccc1CCC(=O)Nc1[nH]nc(-c2ccncc2)c1C [Example 42, 3-(4-Chloro-2-methylphenyl)-N-(4-methyl-3-(pyridin-4-yl)-1H-pyrazol-5-yl)propanamide] | < 1000 nM
35 | Cc1cc(CCC(=O)Nc2[nH]nc(-c3ccncc3)c2C)ccc1Cl [Example 43, 3-(4-Chloro-3-methylphenyl)-N-(4-methyl-3-(pyridin-4-yl)-1H-pyrazol-5-yl)propanamide] | < 1000 nM
